Activity calls are given as the source filed them.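 The calls were made as follows: active = compounds giving half or more protection of infected cells from virus-caused growth loss, again on retest; inactive = the rest.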

The subject of the test is CEM cells HIV-1 protection, formazan growth assay. As to the kind of experiment: NCI AIDS Antiviral Assay. The conditions noted are these: for IC50: measured here: growth of uninfected CEM cells. The method in brief: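 Soluble formazan readout of cell growth; CEM cells ± HIV-1; 5 drug concs. ≥50% protection → retest; ≥50% again = moderately active; reproducible 100% = confirmed active.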

In the case of `CSc1nc(C#N)c(/N=C\N(C)C)n1C`, the EC50 was above 200 µM and the IC50 was above 200 µM.

For `CCC[CH2][Sn]([CH2]CCC)([S]CCS(=O)(=O)O)[S]CCS(=O)(=O)O` (tested in a mixture with another compound), the EC50 was above 200 µM and the IC50 is above 200 µM.

As for `Cc1cc(C)n2nc(N)c(C#N)c2c1C#N`, the EC50 is above 12.9 µM and the IC50 was above 12.9 µM.

On to `COc1ccc2c(c1)CCc1c-2[nH]c2ccc(OC)cc12`, for which the EC50 was above 200 µM and the IC50 is above 200 µM.

Take `N#C/C=C/c1ccc(Cl)cc1`: the EC50 is above 219 µM and the IC50 is above 219 µM.

Consider `O=C1C2CCSCN2C(=O)N1c1ccccc1` (configuration not stated), for which the EC50 is above 40.7 µM and the IC50 is above 40.7 µM.

As to `CN(CCCNc1ccc2ncn3c4ccccc4c(=O)c1c23)CCCN1C(=O)c2cccc3cc([N+](=O)[O-])cc(c23)C1=O`, the EC50 is 0.01 µM and the IC50 came out at 0.0316 µM.

On to `Cc1cc2c(c(C(=O)O)c1C)-c1cccc(Cl)c1C2=O`, for which the outcome was inactive.

Consider `CCOC(=O)c1ccc(C)c(N=NN(C)C)c1`, for which the outcome was inactive.

As for `Cc1ccc(NCCCN2CCN(CCCNc3ccc(C)c4sc5ccccc5c(=O)c34)CC2)c2c(=O)c3ccccc3sc12`, the EC50 is above 100 µM and the IC50 is above 100 µM.

With `Nc1c([N+](=O)[O-])nc(Cl)c2nncn12`, the EC50 is above 234 µM and the IC50 came out at 120 µM.

In the case of `[N-]=[N+]=NC1=CC(=O)c2cccc3cccc1c23`, the EC50 is above 75.9 µM and the half-inhibitory concentration (IC50) amounted to 6.92 µM.

Consider `COC1=C(OC)CCC(/C(C#N)=C/c2ccc(OC)c(OC)c2)=C1`, for which the EC50 is above 41.7 µM and the IC50 turned out to be 21.4 µM.

On to `CC(CC(=O)N1C2CC3CCC2(CS1(=O)=O)C3(C)C)[Si](C)(C)C` (configuration not stated), for which the EC50 is above 200 µM and the IC50 stood at 74.1 µM.

On to `Cc1c(N)nc(C(CC(N)=O)NCC(N)C(N)=O)nc1C(=O)NC(C(=O)NC(C)C(O)C(C)C(=O)NC(C(=O)NCCc1nc(-c2nc(C(=O)NCCCNC(C)c3ccccc3)cs2)cs1)C(C)O)C(OC1OC(CO)C(O)C(O)C1OC1OC(CO)C(O)C(OC(N)=O)C1O)c1cnc[nH]1` (configuration not stated), for which the result was inactive.

Consider `Cc1ccccc1-n1c(N)c(-c2nc3ccccc3[nH]2)sc1=S`, for which the EC50 is above 4.27 µM and the IC50 is above 4.27 µM.

Regarding `O=C1CCCN1CCCN=c1cc2n(-c3ccc(Cl)cc3)c3ccccc3nc-2cc1Nc1ccc(Cl)cc1`, the outcome was inactive.

As to `OC1C2[C@@H](O)CCN2CC[C@H]1O` (some centres not stated), the EC50 is above 759 µM and the IC50 was above 759 µM.

`CCOC(=O)CC1(C(=O)OCC)c2[nH]c3ccccc3c2CCN1Cc1ccccc1` (configuration not stated): the EC50 is above 69.2 µM and the IC50 came to 17.4 µM.

In the case of `O=C(O)c1ccccc1/C=C1\Cc2ccc3c(c2C1=O)CCCC3`, the EC50 was above 200 µM and the IC50 came to 41.7 µM.

For `CSc1c(C#N)c2n(c3ccccc13)c1ccccc1[n+]2C`, the EC50 was above 100 µM and the IC50 is 6.76 µM.

Take `Cc1ccc(C2OC(=O)c3c2ccc2ccccc32)cc1` (configuration not stated): the EC50 was above 35.5 µM and the IC50 was above 35.5 µM.

As for `CC#CC(OCC)(OCC)OCC`, the EC50 is above 1350 µM and the IC50 is above 1350 µM.

In the case of `Nc1nc(NCC2(CO)CC2)cc(=O)[nH]1`, the EC50 is above 200 µM and the IC50 is above 200 µM.

With `C/C(=N\OC(=O)Nc1cccc(Cl)c1)c1ccccc1`, the EC50 is above 200 µM and the IC50 came to 32.4 µM.

As for `CCCCN(CCCC)C(=O)COc1cc2c(O)c3c(O)c(C)c4c(c13)C(=O)C(C)(O/C=C/C(OC)C(C)C(OC(C)=O)C(C)C(O)C(C)C(O)C(C)/C=C/C=C(\C)C(=O)N2)O4` (configuration not stated), the EC50 was above 91.2 µM and the IC50 amounted to 11 µM.

Regarding `Cc1cn(C2CC(Br)C(COC(c3ccccc3)(c3ccccc3)c3ccccc3)O2)c(=O)[nH]c1=O` (configuration not stated), the EC50 is above 200 µM and the IC50 is 13.8 µM.

As to `COc1ccc(C2=C(OC(=O)N(C)C)c3cccn3-c3cc(C(F)(F)F)ccc3S2)cc1`, the EC50 is above 200 µM and the IC50 is above 200 µM.

Regarding `Cn1/c(=N\N=C2\C=C3CCCCC3(C)CC2)sc2ccccc21` (configuration not stated), the EC50 is above 200 µM and the IC50 worked out at 155 µM.

Regarding `Cc1ccc(S(=O)(=O)OC(c2ccccc2)c2ccccc2)cc1`, the EC50 is above 15.5 µM and the IC50 amounted to 10.5 µM.

As to `[N-]=[N+]=CC(=O)OC1Cc2ccccc2C1`, the EC50 was 182 µM and the IC50 was above 200 µM.

For the compound `COc1ccc2nc(NC(=O)C(=O)CC(=O)c3ccc(Cl)cc3)sc2c1`, the outcome was inactive.

In the case of `O=c1oc2cccnc2n1CCCCN1CCN(c2ccccc2)CC1`, the EC50 is above 200 µM and the IC50 was 126 µM.

In the case of `COC(=O)c1cc(C#N)[nH]c1-c1ccc(Br)s1`, the EC50 is above 200 µM and the IC50 turned out to be 4.37 µM.

In the case of `CCOC(=O)/C(=C\c1cccc(Br)c1)P(=O)(OCC)OCC`, the EC50 was above 91.2 µM and the IC50 amounted to 6.03 µM.

As to `COC(=O)[C@H](Cc1c[nH]c2ccccc12)NP(=O)(O)OCC1C=CC(n2cc(C)c(=O)[nH]c2=O)O1` (some centres not stated), the EC50 was 28.2 µM and the IC50 was above 200 µM.

Regarding `O=c1[nH]c(=O)n(C2CC(O)C(CO)O2)cc1NN=NCCCc1ccccc1` (configuration not stated), the EC50 is above 200 µM and the IC50 is above 200 µM.

As for `Cc1nc(N)nc(N)c1N1CCN(c2ccc(C(=O)NC(CCC(=O)O)C(=O)O)cc2)CC1` (configuration not stated), the EC50 is above 200 µM and the IC50 was found to be 0.0631 µM.

In the case of `CC(=O)SCC1OC(n2cc(C)c(=O)[nH]c2=O)C/C1=N\O` (configuration not stated), the EC50 is above 200 µM and the IC50 is above 200 µM.

Regarding `CCOC(=O)C(=O)N=Nc1nc2c(O)c3ccccc3c(O)c2s1`, the EC50 is above 15.1 µM and the IC50 came out at 8.71 µM.

On to `CCCC[C@@H]1CCN2C[C@@H](O)[C@@H](O)[C@H]2[C@@H]1O`, for which the EC50 was above 200 µM and the IC50 is above 200 µM.

In the case of `C=CC[C@H](C[C@H](C[C@H](C[C@H](C[C@H](C[C@H](C[C@H](C[C@H](C[C@H](C[C@H](CCCCC)OC)OC)OC)OC)OC)OC)OC)OC)OC)OC`, the EC50 was above 200 µM and the IC50 was 115 µM.

Turning to `Cc1nc2ccccc2c(-n2cccn2)c1CCn1cccn1`, the EC50 was above 200 µM and the IC50 is 93.3 µM.

On to `C/C(CC(=O)Nc1ccc(Cl)c(Cl)c1)=N/NC(=O)C[N+](C)(C)C`, for which the EC50 is above 34.7 µM and the IC50 is above 34.7 µM.

With `CNc1ncnc2c1nc(NC1CCCC1)n2C1OC(CO)C(O)C1O` (configuration not stated), the EC50 is above 200 µM and the IC50 was above 200 µM.

With `C=C1CC/C=C(/C(=O)O)CC[C@H]2[C@@H]1CC2(C)C`, the EC50 is above 200 µM and the IC50 was 178 µM.

For the compound `CNc1c(Cl)cc(/C=C2\C=Cc3ccccc32)cc1Cl`, the EC50 is above 17.4 µM and the IC50 came out at 12.9 µM.

As to `Nc1nc(Cl)c(/C=N\O)c(NCC2(CO)CC(=O)C2)n1`, the EC50 was above 200 µM and the IC50 was found to be 17 µM.

Consider `N#Cc1cc(Sc2ccc(N)c(C#N)c2)ccc1N`, for which the EC50 is above 200 µM and the IC50 turned out to be 11 µM.

`Oc1c(CN2CCOCC2)cc(N=Nc2ccccc2)c(O)c1CN1CCOCC1`: the EC50 is above 100 µM and the IC50 was above 100 µM.

`COC(=O)CCC(=O)CC(=O)C(=O)Nc1ccc(F)cc1`: the EC50 is above 45.7 µM and the IC50 was above 45.7 µM.

Consider `O=C(O)Cc1ccc(N2N=C(c3ccccc3)CC2=O)cc1`, for which the EC50 was above 200 µM and the IC50 is above 200 µM.

Consider `CC1(CO)CCC(n2ccc(N)nc2=O)O1` (configuration not stated), for which the EC50 is 30.9 µM and the IC50 was above 200 µM.

With `CC1(C)OC(=O)C(Cc2ccccc2)(Cc2ccccc2)C(=O)O1`, the outcome was inactive.

With `CCC(=C(C#N)C#N)c1cc(OC)c(OC)c(OC)c1`, the EC50 is above 26.3 µM and the IC50 is above 26.3 µM.

Turning to `CC1OC(OC2C(O)COC(OC3C(C)OC(OC4C(OC(=O)[C@]56CCC(C)(C)C[C@@H]5C5=CCC7[C@@]8(C)C[C@H](O)[C@H](OC9OC(CO)C(O)C(OC%10OC(CO)C(O)C(O)C%10O)C9O)[C@@](C)(CO)[C@@H]8CC[C@@]7(C)[C@]5(C)CC6)OCC(O)C4O)C(O)C3O)C2O)C(O)C(O)C1O` (some centres not stated), the EC50 was above 58.9 µM and the IC50 was 21.4 µM.

Regarding `Cc1ccc(SSc2ccc(C)c(Cl)c2)cc1Cl`, the EC50 was above 200 µM and the IC50 is above 200 µM.

As to `Cc1cc(=O)oc2c(CNC(CC(C)C)C(=O)O)c(O)ccc12` (configuration not stated), the EC50 is above 200 µM and the IC50 is above 200 µM.

In the case of `O=C(CCCCCCCCCCc1ccccc1)c1c(O)cccc1O`, the EC50 was above 14.8 µM and the IC50 was above 14.8 µM.

On to `C/C(CCn1[nH]c(=O)ccc1=O)=N\Nc1ccc([N+](=O)[O-])cc1[N+](=O)[O-]`, for which the outcome was inactive and the IC50 came out at 20 µM.

With `C/C(=N/OC(=O)N(C)C)c1ccccc1`, the EC50 is above 200 µM and the IC50 is above 200 µM.

`COc1ccc(/C=C(\C#N)c2ccc(OC)cc2)cc1`: the EC50 was above 200 µM and the IC50 was found to be 8.13 µM.

For `CCC(=O)CCCC=C(c1cc(Cl)c(OC)c(C(=O)OC)c1)c1cc(Cl)c(OC)c(C(=O)OC)c1`, the EC50 was 1.45 µM and the IC50 amounted to 40.7 µM.

For the compound `CC(=O)NS(=O)(=O)c1ccc(NC(=O)COC(=O)c2cccc3c(=O)c4ccccc4[nH]c23)cc1`, the EC50 was above 363 µM and the IC50 stood at 245 µM.

Take `NNC(N)Nc1ccccc1` (configuration not stated): the EC50 was above 200 µM and the IC50 is above 200 µM.

On to `COc1ccc(NC2=NCCO2)c2c1CCCC2`, for which the EC50 is above 200 µM and the IC50 amounted to 77.6 µM.

On to `O=C(O)c1ccccc1P12(OC(=O)c3ccccc31)OC(=O)c1ccccc12`, for which the EC50 is above 209 µM and the IC50 came to 170 µM.

Turning to `Cc1cccc(C)c1NC(=O)CCC/C(CC(=O)c1ccc(F)cc1)=N\NC(=O)C(=O)NN`, the EC50 was above 148 µM and the IC50 was above 148 µM.

In the case of `O/N=C(\CC(O)(C(F)(F)F)C(F)(F)F)c1cccs1`, the EC50 is above 200 µM and the IC50 was above 100 µM.

One may read the EC50 as the concentration at which the effect is half-maximal. Broadly, the IC50 is the concentration that gives 50% inhibition.

Source of the values: PubChem BioAssay AID179 (DTP/NCI, 2004).
